Experimental data reported in patent publication US8268864B2, “Combination of anticholinergics and leukotriene receptor antagonists for the treatment of respiratory diseases” (Meda Pharma GmbH & Co. KG, priority 2005, dated 2012).

Columns and labels:
[1] = inhaled; asthmatic subjects (Lammers); cited from earlier work
TNFα release = conditions: R,R-glycopyrrolate alone, up to 10 μmol/l; LPS 100 ng/ml
Source text: (§1) Not only TNFα but also IL-2 plays an important role in inflammatory airway diseases. It is known that in certain forms of asthma (e.g. intrinsic and occupational), particular subsets of T cells produce, among others, IL-2 (Ricci et al.; J Investig Allergol Clin Immunol 1994; 4:214-20). Moreover, allergic patients have special populations of T cells which can be induced to secrete IL-2 (McHugh et al.; Clin Exp Allergy 1993; 23:137-44). […] Therefore, the influence of R,R-glycopyrrolate in combination with cysLT-receptor antagonists on TNFα- and interleukin(IL)-2-release was investigated by using human peripheral blood mononuclear cells (PBMCs). The investigations were approved by the University Ethics Committee according to the International Declarations of Helsinki and Tokyo.
(§2) PBMCs were isolated from heparinized blood samples of healthy donors by density gradient centrifugation. An equal volume of Hanks buffer (Life Technologies, Heidelberg, Germany) is added to heparinized whole blood samples. 15 ml Histopaque-1077 (Sigma, Deisenhofen, Germany) are overlayed with a maximum of 40 ml of blood/Hanks mixture were centrifuged for 30 min at room temperature (2000 rpm). A visible band containing PBMCs is transferred to a fresh tube and washed twice with Hanks-buffer. […]

IL-2 release = conditions: R,R-glycopyrrolate alone, up to 10 μmol/l; TPA 25 nM / ionomycin 1 μg/ml
Source text: as §1, §2

[2] = system: chemotactic response in the guinea pig conjunctiva; conditions: guinea pig conjunctiva (Chan); cited from earlier work
[3] = inhaled; asthmatic subjects (Makker); cited from earlier work
[4] = inhaled; asthmatic subjects (Christie); cited from earlier work
M3 muscarinic receptors = M3 muscarinic receptors (Homo sapiens, UniProt P20309); conditions: kinetics studies (Haddad et al.); cited from earlier work
M1-M3 receptors = conditions: cited from earlier work
IL-2 expression = conditions: ovalbumin-sensitized Brown Norway rats (Lin et al.); cited from earlier work
[5] = topically into the eyes; allergic conjunctivitis in rats (Papathanassiou et al.); cited from earlier work

Sequence of M3 muscarinic receptors (P20309 whole entry): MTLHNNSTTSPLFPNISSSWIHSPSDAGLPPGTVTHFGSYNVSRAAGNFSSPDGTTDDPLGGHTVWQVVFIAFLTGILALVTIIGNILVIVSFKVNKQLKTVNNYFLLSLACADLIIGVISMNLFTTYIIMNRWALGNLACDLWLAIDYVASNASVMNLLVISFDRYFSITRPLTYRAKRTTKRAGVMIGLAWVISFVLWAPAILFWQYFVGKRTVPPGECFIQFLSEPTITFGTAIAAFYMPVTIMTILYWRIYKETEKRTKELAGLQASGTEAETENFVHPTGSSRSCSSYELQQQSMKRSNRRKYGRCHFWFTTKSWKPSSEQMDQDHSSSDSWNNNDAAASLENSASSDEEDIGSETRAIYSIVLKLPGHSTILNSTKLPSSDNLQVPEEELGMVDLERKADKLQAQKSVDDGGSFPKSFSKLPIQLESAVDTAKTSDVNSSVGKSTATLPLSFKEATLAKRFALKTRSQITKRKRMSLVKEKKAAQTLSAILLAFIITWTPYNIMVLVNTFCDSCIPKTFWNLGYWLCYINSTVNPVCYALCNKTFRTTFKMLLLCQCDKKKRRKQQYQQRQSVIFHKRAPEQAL

CN(C)C(=O)CCS[C@H](SCCC(=O)O)c1cccc(/C=C/c2ccc3ccc(Cl)cc3n2)c1 [verlukast (MK-0679), verlukast]
mean FEV1 [1]: significant improvement

C[N+]1(C)CC[C@@H](OC(=O)[C@](O)(c2ccccc2)C2CCCC2)C1.[Br-] [R,R-glycopyrrolate]
influence on LPS-induced TNFα release (TNFα release): did not influence
influence on stimulated IL-2 release (IL-2 release): had no influence

CN(C)C(=O)CCSC(SCCC(=O)O)c1cccc(/C=C/c2ccc3ccc(Cl)cc3n2)c1 (stereo not shown) [MK-571]
in vivo chemotactic response [2]: completely inhibited

COc1cc(C(=O)NS(=O)(=O)c2ccccc2C)ccc1Cc1cn(C)c2ccc(NC(=O)OC3CCCC3)cc12 [ICI 204,219]
protection against exercise-induced bronchoconstriction [3]: protected significantly

O=C(O)CCS[C@H](c1ccccc1CCCCCCCCc1ccccc1)[C@@H](O)C(=O)O [pobilukast (SK&F 104353), pobilukast]
LT induced bronchoconstriction [4]: inhibited significantly

C[N+]1(C)CCC(OC(=O)C(O)(c2ccccc2)C2CCCC2)C1 (stereo not shown) [Glycopyrrolate]
dissociation from M3 muscarinic receptors (M3 muscarinic receptors): dissociates slowly
selectivity in binding to the M1-M3 receptors (M1-M3 receptors): no selectivity

COc1cc(C(=O)NS(=O)(=O)c2ccccc2C)ccc1Cc1cn(C)c2ccc(NC(=O)OC3CCCC3)cc12 [zafirlukast]
IL-2 expression (IL-2 expression): able to decrease
development of symptoms and mediator release [5]: effectively inhibit
